From patent publication US20260364186A1, “Chemical Conjugates, Compositions, and Methods of Preparation and Use Thereof” (Transfection Holdings Limited, priority 2022, published 2026)
Entries after “also recorded” stand apart in the source; their conditions may differ.

Test system: mouse embryonic fibroblasts MEF
Test: FACS uptake of BODIPY FL conjugates (Example 4)
Assay type: cell-based
Conditions: 200 nM, 5 min
Method: FIG. 4B: Conjugate compounds coupled to BODIPY FL were tested for uptake using 200 nM each conjugate and 5 minute incubation with mouse embryonic fibroblasts MEF. Mean fluorescent intensities (MFI). 1,000 cells were sorted by FACS.
Fibroblasts are ubiquitous mesenchymal cells that are thought to play important roles in wound repair and healing, and serve as reservoirs of multipotent progenitors capable of repopulating depleted cell compartments. Primary mouse embryonic fibroblast (MEF) cultures consist of highly heterogeneous populations of distinct cell types. Singhal, P. K., et al., 2016. MEF cells have a limited growth capacity and on prolonged passaging spontaneously immortalize at a low frequency. In contrast to transformation of primary MEF cells that requires the presence of two cooperating oncogenes, immortalised MEF cells can be transformed by a single oncogene (Ras) resulting in a loss of contact inhibition, anchorage-independent growth, and tumour formation in nude mice. Studies of MEF cells have played an important role in the elucidation of the molecular mechanisms underlying cellular immortalization, transformation, and tumorigenesis. Additionally, utilization of MEF cells disrupted for specific genes has provided a powerful tool to analyse the genetic regulation of these cellular processes. Sun and Taneja, 2007. […]

CC1=CC(C)=[N+]2C1=Cc1ccc(CCCn3cc(CCNC(=O)/C=C/NC(=O)[C@H](O)C(C)(C)CO)nn3)n1[B-]2(F)F [Compound 124]
uptake (fluorescent intensities): highest uptake; also recorded: showed uptake
